Measurements published in paper PMC8304634, “Structure–Activity Relationships of the Antimalarial Agent Artemisinin 10. Synthesis and Antimalarial Activity of Enantiomers of rac-5β-Hydroxy-D-Secoartemisinin and Analogs: Implications Regarding the Mechanism of Action” (Molecules, 2021).
≈ marks a conversion by molar mass, not a printed value. Entries after “also recorded” stand apart in the source; their conditions may differ.

How the values were obtained:
[1] = system: P. falciparum Sierra Leone (D-6) clone; experiment: In vitro antimalarial pLDH assay, D-6 clone; assay type: cell-based; conditions: for IC50: Plasmodium falciparum, Erythrocyte, read-out: IC50 (ng/mL) D-6; for IC50 / IC50 (ng/mL) D-6: 72 h, parasitized red blood cells, pLDH readout, NA = Not active
Experimental: (§1) Artemisinin 1 and the analogs rac-2, 2a, 2b, 9–16, diastereomers 19a, 19b, 22 and 29 were tested in vitro in parasitized whole blood against drug-resistant strains of P. falciparum parasite clones D-6 and W-2 at The National Center for Natural Products Research (NCNPR) at The University of Mississippi using the parasite lactate dehydrogenase (pLDH) assay developed by Makler (Table 3). This assay is based on the ability of the pLDH enzyme of P. falciparum to reduce APAD to APADH. This reaction is carried out at a slow rate by human red blood cell LDH.
(§2) The formation of APADH was monitored colorimetrically by the addition of nitroblue tetrazolium which was reduced to a blue formazan product. Two P. falciparum malaria parasite clones, designated as Indochina (W-2) and Sierra Leone (D-6), were used in susceptibility testing. The W-2 clone is chloroquine-resistant and mefloquine-sensitive, while the D-6 clone is chloroquine-sensitive but mefloquine resistant. The relative potency values for these analogs were derived from the IC50 value for artemisinin (1) divided by their IC50 values (Table 3) and then adjusted for molecular weight differences by multiplication of the ratio of the molecular weight of the analog divided by the molecular weight of artemisinin. This approach to reporting activity was based in part on the fact that the analogs were tested on different occasions in which the IC50 for the control, artemisinin, had varied anywhere from 5 to 7 ng/mL based on parasitemia levels and clone.
(§3) Synthesized compounds were tested in vitro against two P. falciparum malaria parasite clones, designated as Indochina (W-2) and Sierra Leone (D-6). The W-2 clone is chloroquine resistant whereas the D-6 clone is a chloroquine-sensitive strain.
(§4) A suspension of red blood cells infected with W-2 or D-6 strain of P. falciparum that contains 2% parasitemia and 2% hematocrit in RPMI 1640 medium supplemented with 10% human serum and 60 µg/mL amikacin was dispensed into the wells of a 96-well flat-bottomed microtiter plate containing 10 µL of serially diluted test samples. The plates were incubated at 37 °C in an environment of 90% N2, 5% O2, and 5% CO2 for 72 h. Next, 100 µL aliquots of the Malstat reagent were added to each well of a new 96-well microtiter plate. The cultures were resuspended from the assay plate by mixing each well up and down several times. A total of 20 µL from each well of the resuspended culture was removed and added to the plate containing the Malstat reagent and the plate was incubated at r.t., for 30 min. Further, to each well, 20 µL of a NBT/PES (1:1) solution (2 and 0.1 mg/mL, respectively) were added. The plate was incubated in the dark for 1 h. The reaction was terminated by the addition of 100 µL of a 5% acetic acid solution. The […] plate was then read at 650 nm. Artemisinin and chloroquine were included in each assay as antimalarial drug controls. The IC50 values were computed from the dose–response curves using XLfit 4.2.

[2] = system: P. falciparum Indochina (W-2) clone; experiment: In vitro antimalarial pLDH assay, W-2 clone; assay type: cell-based; conditions: for IC50: Plasmodium falciparum, Erythrocyte, read-out: IC50 (ng/mL) W-2; for IC50 / IC50 (ng/mL) W-2: 72 h, parasitized red blood cells, pLDH readout, NA = Not active
Experimental: as §1, §2, §3, §4

P. falciparum = experiment: In vitro antimalarial pLDH assay, clone not distinguished in the statement; assay type: cell-based; conditions: for in vitro antimalarial activity (in words): W-2 and D-6 strains
Experimental: as §1, §2, §3, §4

[3] = 100 × [IC50 (artemisinin, control value)/IC50 (analog)] MW (analog)/MW(artemisinin)
[4] = as quoted in the Discussion, relative to artemisinin

SMILES	Relative Activity D-6 [1, 3]	IC50 [1]	Relative Activity W-2 [2, 3]	IC50 [2]	melting point	Relative Activity D-6 [1, 4]	Relative Activity W-2 [2, 4]	in vitro antimalarial activity (in words) (P. falciparum)	times more potent than the alcohol rac-2 or 2a (P. falciparum; fold potency versus rac-2 or 2a)	IC50 (P. falciparum; Plasmodium falciparum, varied between test occasions, based on parasitemia levels and clone, read-out: IC50 for the control, artemisinin)	IC50 (ng/mL) D-6 [1]	IC50 (ng/mL) W-2 [2]
CC12CC(OC(=O)c3ccc(Cl)cc3)C3CCCCC3(CO1)OO2 (stereo not shown) [Compound 14, 3-Methyloctahydro-1H-3,9a-epidioxybenzo[c]oxepin-5-yl 4-chlorobenzoate]	12.18	145 ng/mL (≈ 0.41 µM)	10.58	120 ng/mL (≈ 0.34 µM)	110 to 112 °C							
CCCCC(=O)OC1CC2(C)OCC3(CCCCC13)OO2 (stereo not shown) [Compound 9, 3-Methyloctahydro-1H-3,9a-epidioxybenzo[c]oxepin-5-yl pentanoate]	5.00	149 ng/mL (≈ 0.5 µM)	2.60	209 ng/mL (≈ 0.7 µM)								
CC12CC(=O)C3CCCCC3(CO1)OO2 (stereo not shown) [Compound 15, 3-Methylhexahydro-1H-3,9a-epidioxybenzo[c]oxepin-5(5aH)-one]	33.30	31.8 ng/mL (≈ 0.15 µM)	32.72	23.3 ng/mL (≈ 0.11 µM)		33.30%	32.72%	substantially improved over the corresponding alcohol 2	55–77			
COc1ccc(C(=O)OC2CC3(C)OCC4(CCCCC24)OO3)cc1 (stereo not shown) [Compound 12, 3-Methyloctahydro-1H-3,9a-epidioxybenzo[c]oxepin-5-yl 4-methoxybenzoate]	15.13	115 ng/mL (≈ 0.33 µM)	7.50	167 ng/mL (≈ 0.48 µM)	155 to 157 °C							
CC12CC(OC(=O)c3ccccc3)C3CCCCC3(CO1)OO2 (stereo not shown) [Compound 10, 3-Methyloctahydro-1H-3,9a-epidioxybenzo[c]oxepin-5-yl benzoate]	10.40	153 ng/mL (≈ 0.48 µM)	9.50	121 ng/mL (≈ 0.38 µM)	100 to 102 °C							
CC12CC(OC(=O)c3ccc(F)cc3)C3CCCCC3(CO1)OO2 (stereo not shown) [Compound 11, 3-Methyloctahydro-1H-3,9a-epidioxybenzo[c]oxepin-5-yl 4-fluorobenzoate]	20.81	80.7 ng/mL (≈ 0.24 µM)	12.41	97.5 ng/mL (≈ 0.29 µM)	88 to 90 °C	20.81%	12.41%					
C[C@@H]1CC[C@H]2[C@@H](C)C(=O)O[C@@H]3O[C@@]4(C)CC[C@@H]1[C@]32OO4 [Compound 1, Artemisinin]	100	7.05 ng/mL (≈ 0.025 µM)	100	5.08 ng/mL (≈ 0.018 µM)						0.005 to 0.007 mg/L (≈ 0.0177 to 0.0248 µM)		
COC(C(=O)OC1CC2(C)OCC3(CCCCC13)OO2)(c1ccccc1)C(F)(F)F [Compound 19a, (3R,5R,5aR,9aS)-3-methyloctahydro-1H-3,9a-epidioxybenzo[c]oxepin-5-yl(R)-3,3,3-trifluoro-2-methoxy-2-phenylpropanoate]	7.13		2.17								150.64 ng/mL (≈ 0.35 µM)	357.24 ng/mL (≈ 0.83 µM)
CC12CC(OC(=O)C=Cc3ccccc3)C3CCCCC3(CO1)OO2 (stereo not shown) [Compound 13, 3-Methyloctahydro-1H-3,9a-epidioxybenzo[c]oxepin-5-yl cinnamate]	13.14	131 ng/mL (≈ 0.38 µM)	8.37	148 ng/mL (≈ 0.43 µM)								
C[C@]12C[C@H](O)[C@@H]3CCCC[C@@]3(CO1)OO2 [Compound 2b, (3S,5S,5aS,9aR)-3-methyloctahydro-1H-3,9a-epidioxybenzo[c]oxepin-5-ol]					107 to 109 °C			devoid of antimalarial activity				
CC12CC(O)C3CCCCC3(CO1)OO2 (racemic) [rac-2, 3-Methyloctahydro-1h-3,9a-epidioxybenzo[c]oxepin-5-ol]		1720 ng/mL (≈ 8.01 µM)	0.43	1780 ng/mL (≈ 8.3 µM)	109 to 111 °C	0.62%	0.43%					
C=C1CC2(C)OCC3(CCCCC13)OO2 (stereo not shown) [Compound 16]	3.05	345 ng/mL (≈ 1.64 µM)	2.18	346 ng/mL (≈ 1.65 µM)								
COC(C(=O)OC1CC2(C)OCC3(CCCCC13)OO2)(c1ccccc1)C(F)(F)F [Compound 19b, (3S,5S,5aS,9aR)-3-methyloctahydro-1H-3,9a-epidioxybenzo[c]oxepin-5-yl(R)-3,3,3-trifluoro-2-methoxy-2-phenylpropanoate]	0.50		0.34			0.50%	0.34%				2169.31 ng/mL (≈ 5.04 µM)	2255.40 ng/mL (≈ 5.24 µM)
CC(=O)OCC1(O)CCCCC1C(C)=O (stereo not shown) [Compound 29, (2-Acetyl-1-hydroxycyclohexyl)methyl acetate]								Neither 22 nor 29 possessed in vitro antimalarial activity; also recorded: no antimalarial activity				
C[C@@]12C[C@@H](O)[C@H]3CCCC[C@]3(CO1)OO2 [Compound 2a, (3R,5R,5aR,9aS)-3-methyloctahydro-1H-3,9a-epidioxybenzo[c]oxepin-5-ol]	0.43	1260 ng/mL (≈ 5.86 µM)	0.44	885 ng/mL (≈ 4.13 µM)	108 to 110 °C	0.43%	0.44%	Antimalarial activity resided with only the artemisinin-like enantiomer; also recorded: the only alcohol of the pair with antimalarial activity				
CC(=O)OCC12CCCCC1C(O)CO2 (stereo not shown) [Compound 22, (3-Hydroxyhexahydrobenzofuran-7a(2H)-yl)methyl acetate]					123 to 125 °C			Neither 22 nor 29 possessed in vitro antimalarial activity; also recorded: no antimalarial activity				
